For the assay, the system named is YUL0019 PR8 cells. Nature of the assay: Drug sensitivity of poziotinib resistant YUL0019 cells (FIG. 8). Type of assay: cell-based.

Read-outs that look alike come from different tables or passages of the source.

Consider `CN1CC[C@H](c2c(O)cc(O)c3c(=O)cc(-c4ccccc4Cl)oc23)[C@H](O)C1` [Alvocidib], for which the “Sensitivity of YUL0019 PR8 (poziotinib resistant) cells” value (from here on “Sensitivity of YUL0019 PR8”) was “highly sensitive”.
In the case of `COc1cc(Nc2ncc3c(n2)-c2ccc(Cl)cc2C(c2c(F)cccc2OC)=NC3)ccc1C(=O)O` [MLN8237 (Alisertib)], the “Sensitivity of YUL0019 PR8” value is, setting by setting: (listed as Alisertib) “sensitive”; (listed as alisertib) “highly sensitive”.
As for `C=CC(=O)N1CCC(Oc2cc3c(Nc4ccc(Cl)c(Cl)c4F)ncnc3cc2OC)CC1` [poziotinib, 1-[4-[4-(3,4-dichloro-2-fluoroanilino)-7-methoxyquinazolin-6-yl]oxypiperidin-1-yl]prop-2-en-1-one], the “Sensitivity of YUL0019 PR8” value is listed as “resistant”.
Consider `Cc1csc(-c2nnc(Nc3ccc(Oc4ncccc4-c4ccnc(N)n4)cc3)c3ccccc23)c1` [AMG 900], for which the “Sensitivity of YUL0019 PR8” value is “sensitive” (listed as AMG900) and “highly sensitive” (listed as AMG-900).
As to `CC[C@@H]1C(=O)N(C)c2cnc(Nc3ccc(C(=O)N[C@H]4CC[C@H](N5CCN(CC6CC6)CC5)CC4)cc3OC)nc2N1C(C)C` [BI6727 (Volasertib)], the “Sensitivity of YUL0019 PR8” value is “highly sensitive”.
For `Cc1ccc(C(=O)N(CCCN)[C@@H](c2nc3cc(Cl)ccc3c(=O)n2Cc2ccccc2)C(C)C)cc1` [Ispinesib], the “Sensitivity of YUL0019 PR8” value is “highly sensitive”. The “Sensitivity of YUL0019 PR8” value (listed as ispinasib) was “sensitive”.

The values above are taken from US20210015819A1, “METHODS FOR TREATMENT OF CANCERS WITH EGFR ACTIVATING MUTATIONS” (Board of Regents, The University of Texas System, priority 2018, published 2021).
